# Biological target: T1, menin (Homo sapiens, UniProt O00255, T541A)
# T1 construct: Menin (a.a. 1-610-6×his tag)
# T1 sequence (O00255 with tags, fused parts or gaps T541A): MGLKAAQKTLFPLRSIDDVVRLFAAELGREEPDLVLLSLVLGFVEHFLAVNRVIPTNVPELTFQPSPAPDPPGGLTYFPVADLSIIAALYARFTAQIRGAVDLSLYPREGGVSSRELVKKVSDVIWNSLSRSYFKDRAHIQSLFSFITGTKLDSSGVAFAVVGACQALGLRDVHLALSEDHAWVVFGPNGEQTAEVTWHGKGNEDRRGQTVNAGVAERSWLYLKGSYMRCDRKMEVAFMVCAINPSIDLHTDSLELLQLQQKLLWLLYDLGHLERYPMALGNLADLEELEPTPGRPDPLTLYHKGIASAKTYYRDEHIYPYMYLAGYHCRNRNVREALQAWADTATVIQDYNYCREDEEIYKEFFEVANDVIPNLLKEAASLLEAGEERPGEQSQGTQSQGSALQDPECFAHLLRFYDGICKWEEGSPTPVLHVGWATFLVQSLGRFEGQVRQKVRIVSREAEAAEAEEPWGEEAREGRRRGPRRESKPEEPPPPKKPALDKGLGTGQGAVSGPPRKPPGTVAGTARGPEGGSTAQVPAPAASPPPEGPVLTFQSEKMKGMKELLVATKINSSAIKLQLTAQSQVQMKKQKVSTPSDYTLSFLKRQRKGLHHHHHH
# Test: Menin/MLL homogenous time-resolved fluorescence (HTRF) assay
# Assay type: binding
# Details: location 2; read-out: (2) location 2 Menin HTRF assay (IC50 (nM))
# Description: 2) Menin/MLL Homogenous Time-Resolved Fluorescence (HTRF) Assay
# To an untreated, white 384-well microtiter plate was added 40 nL 200× test compound in DMSO and 4 μL 2× terbium chelate-labeled menin (vide infra for preparation) in assay buffer (40 mM Tris HCl, pH 7.5, 50 mM NaCl, 1 mM DTT and 0.05% Pluronic F-127). After incubation of test compound and terbium chelate-labeled menin for 5 min at ambient temperature, 4 μL 2× FITC-MBM1 peptide (FITC-β-alanine-[…]-NH2 (SEQ ID NO: 23)) in assay buffer was added, the microtiter plate centrifuged at 1000 rpm for 1 min and the assay mixtures incubated for 15 min at ambient temperature. The relative amount of menin.FITC-MBM1 complex present in an assay mixture is determined by measuring the homogenous time-resolved fluorescence (HTRF) of the terbium/FITC donor/acceptor fluorphore pair using a BMG Pherastar plate reader (ex. 337 nm/terbium em. 490 nm/FITC em. 520 nm) at ambient temperature. The degree of fluorescence resonance energy transfer (the HTRF value) is expressed as the ratio of the fluorescence emission intensities of the FITC and terbium fluorophores (Fern 520 nm/Fem 490 nm). The final concentrations of reagents in the binding assay are […] terbium chelate-labeled menin (location 2), 75 nM FITC-MBM1 peptide and 0.5% DMSO in assay buffer. Dose-response titrations of test compounds are conducted using an 11 point, three-fold serial dilution scheme, starting typically at 25 μM (location 1) or starting typically at 10 μM (location 2).
# Compound potencies were determined by first calculating % inhibition at each compound concentration according to equation 1: % inhibition=((HC−LC)−(HTRF^compound−LC))/(HC−LC))*100 (Eqn 1)
# Where LC and HC are the HTRF values of the assay in the presence or absence of a saturating concentration of a compound that competes with FITC-MBM1 for binding to menin, and HTRF^compound is the measured HTRF value in the presence of the test compound. FTC and LC HTRF values represent an average of at least 16 replicates per plate.
# Where Bottom and Top are the lower and upper asymptotes of the dose-response curve, respectively, IC50 is the concentration of compound that yields 50% inhibition of signal and h is the Hill coefficient.
# Preparation of Terbium cryptate labeling of Menin: Menin (a.a. 1-610-6×his tag (“6×his” disclosed as SEQ ID NO: 3)) was labeled with terbium cryptate as follows. 2 mg of Menin was buffer exchanged into 1× phosphate buffered saline. 16 uM Menin was incubated with 4-fold molar excess NHS-terbium cryptate (Cisbio Bioassays, Bedford, Mass.) for 2 hours at room temperature. The labeled protein was purified away from free label by running the reaction over a Superdex 200 Increase 10/300 GL column at 0.75 ml/min. Peak fractions were collected, aliquoted and frozen at −80° C.
row,SMILES,IC50 [nM]
1,"FC(F)(F)Cc1cc2c(N3CCC4(CCC(Nc5ccccc5)C4)C3)ncnc2s1 (single isomer, unassigned) [Compound 32]",123
2,"FC(F)(F)Cc1cc2c(N3CCC4(CCC(Nc5ccccc5)C4)C3)ncnc2s1 (single isomer, unassigned) [Compound 34]",338
3,"O=C(NC1CC2(CCN(c3ncnc4sc(CC(F)(F)F)cc34)C2)C1)c1ccccc1 (single isomer, unassigned) [Compound 37]",8340
4,"CNc1nc(N2CCC3(CC(NCc4ccccc4)C3)C2)c2cc(CC(F)(F)F)sc2n1 (single isomer, unassigned) [Compound 62]",115
5,"CNC(=O)c1ccc(NC2CC3(CCN(c4nc(NC)nc5sc(CC(F)(F)F)cc45)C3)C2)cc1 (single isomer, unassigned) [Compound 65]",133
6,"CNC(=O)c1ccc(NC2CC3(CCN(c4ncnc5sc(CC(F)(F)F)cc45)C3)C2)c(Cl)c1 (single isomer, unassigned) [Compound 68]",39.6
7,"CNC(=O)c1ccc(NC2CC3(CCN(c4ncnc5sc(CC(F)(F)F)cc45)C3)C2)nc1 (single isomer, unassigned) [Compound 71]",433
8,"CN(C)CCNC(=O)c1ccc(NC2CC3(CCN(c4ncnc5sc(CC(F)(F)F)cc45)C3)C2)cc1 (single isomer, unassigned) [Compound 74]",60.4
9,"Cn1c(=O)[nH]c2cc(NC3CC4(CCN(c5ncnc6sc(CC(F)(F)F)cc56)C4)C3)ccc21 (single isomer, unassigned) [Compound 91]",166
10,"CNC(=O)c1ccc(NC2CCC3(C2)CN(c2ncnc4sc(CC(F)(F)F)cc24)C3)cc1 (single isomer, unassigned) [Compound 97]",213
11,"O=C1CN(C(=O)c2ccc(NC3CC4(CCN(c5ncnc6sc(CC(F)(F)F)cc56)C4)C3)cc2)CCN1 (single isomer, unassigned) [Compound 105]",3040
12,"Cc1nc(N2CC3(CC[C@H](NCc4cccc(-c5cc[nH]n5)c4)C3)C2)c2cc(CC(F)(F)F)sc2n1 (single isomer, unassigned) [Compound 118]",256
13,"FC(F)(F)Cc1cc2c(N3CCC4(CC(Nc5ccccc5)C4)C3)ncnc2s1 (single isomer, unassigned) [Compound 150]",370
14,"FC(F)(F)Cc1cc2c(N3CCC4(CC(Nc5cccnc5)C4)C3)ncnc2s1 (single isomer, unassigned) [Compound 152]",288
15,"N#CC1(c2ccc(NC3CC4(CCN(c5ncnc6sc(CC(F)(F)F)cc56)C4)C3)cc2)CC1 (single isomer, unassigned) [Compound 171]",265
16,"CS(=O)(=O)N1CCN(C(=O)c2ccc(NC3CC4(CCN(c5ncnc6sc(CC(F)(F)F)cc56)C4)C3)cc2)CC1 (single isomer, unassigned) [Compound 179]",2900
17,"COC1CCN(C(=O)c2ccc(NC3CC4(CCN(c5ncnc6sc(CC(F)(F)F)cc56)C4)C3)cc2)CC1 (single isomer, unassigned) [Compound 184]",3430
18,"O=C(c1ccc(NC2CC3(CCN(c4ncnc5sc(CC(F)(F)F)cc45)C3)C2)cc1)N1CCNCC1 (single isomer, unassigned) [Compound 188]",200
19,"CNC(=O)c1ccc(NC2CC3(CCN(c4ncnc5sc(CC(F)(F)F)cc45)C3)C2)cc1F (single isomer, unassigned) [Compound 204]",84.6
20,"N#CCc1ccc(NC2CC3(CCN(c4ncnc5sc(CC(F)(F)F)cc45)C3)C2)c(Cl)c1 (single isomer, unassigned) [Compound 209]",65.3

row,SMILES,IC50 [nM]
1,"N#CCc1ccc(NC2CC3(CCN(c4ncnc5sc(CC(F)(F)F)cc45)C3)C2)cc1Cl (single isomer, unassigned) [Compound 210]",70.4
2,"O=S(=O)(c1ccc(NC2CC3(CCN(c4ncnc5sc(CC(F)(F)F)cc45)C3)C2)cc1)N1CCOCC1 (single isomer, unassigned) [Compound 220]",118
3,"CNC(=O)c1ccc(NC2CC3(CCN(c4ncnc5sc(CC(F)(F)F)cc45)C3)C2)cc1C1CCN(C)CC1 (single isomer, unassigned) [Compound 231]",208
4,"CN1CCC(c2cc(NC3CC4(CCN(c5ncnc6sc(CC(F)(F)F)cc56)C4)C3)ccc2C(=O)N2CCOCC2)CC1 (single isomer, unassigned) [Compound 233]",108
5,"CNC(=O)c1c(F)cc(NC2CC3(CCN(c4ncnc5sc(CC(F)(F)F)cc45)C3)C2)cc1F (single isomer, unassigned) [Compound 244]",516
6,"O=C(c1cnc(NC2CC3(CCN(c4ncnc5sc(CC(F)(F)F)cc45)C3)C2)nc1)N1CCOCC1 (single isomer, unassigned) [Compound 259]",> 10000
7,"Cc1nc(N2CCC3(CC(NCc4ccccc4)C3)C2)c2cc(CC(F)(F)F)sc2n1 (single isomer, unassigned) [Compound 261]",529
8,"COc1nc(N2CCC3(CC(Nc4ccccc4)C3)C2)c2cc(CC(F)(F)F)sc2n1 (single isomer, unassigned) [Compound 266]",1020
9,"CNc1nc(N2CCC3(CC(Nc4ccccc4)C3)C2)c2cc(CC(F)(F)F)sc2n1 (single isomer, unassigned) [Compound 268]",943
10,"CC(C)(N[C@@H]1CCC2(C1)CN(c1ncnc3sc(CC(F)(F)F)cc13)C2)c1ccccc1 (single isomer, unassigned) [Compound 280]",158
11,"CNS(=O)(=O)c1ccc(N[C@@H]2CCC3(C2)CN(c2ncnc4sc(CC(F)(F)F)cc24)C3)cc1 (single isomer, unassigned) [Compound 290]",231
12,"O=C1Cc2ccc(N[C@H]3CCC4(C3)CN(c3ncnc5sc(CC(F)(F)F)cc35)C4)cc2N1 (single isomer, unassigned) [Compound 294]",58.4
13,"O=c1[nH]c2ccc(N[C@@H]3CCC4(C3)CN(c3ncnc5sc(CC(F)(F)F)cc35)C4)cc2o1 (single isomer, unassigned) [Compound 296]",146
14,"O=c1[nH]c2ccc(N[C@H]3CCC4(C3)CN(c3ncnc5sc(CC(F)(F)F)cc35)C4)cc2o1 (single isomer, unassigned) [Compound 297]",131
15,"O=c1[nH]c2ccc(N[C@H]3CCC4(C3)CN(c3ncnc5sc(CC(F)(F)F)cc35)C4)cc2[nH]1 (single isomer, unassigned) [Compound 300]",128
16,"FC(F)(F)Cc1cc2c(N3CC4(CC[C@@H](Nc5ccc(-c6cn[nH]c6)cc5)C4)C3)ncnc2s1 (single isomer, unassigned) [Compound 303]",521
17,"FC(F)(F)Cc1cc2c(N3CCC4(CC(Nc5ccc6cc[nH]c6c5)C4)C3)ncnc2s1 (single isomer, unassigned) [Compound 312]",136
18,"FC(F)(F)Cc1cc2c(N3CCC4(CC(Nc5ccc6cc[nH]c6c5)C4)C3)ncnc2s1 (single isomer, unassigned) [Compound 313]",55.2
19,"O=c1[nH]c2ccc(NC3CC4(CCN(c5ncnc6sc(CC(F)(F)F)cc56)C4)C3)cc2o1 (single isomer, unassigned) [Compound 324]",85.9
20,"FC(F)(F)Cc1cc2c(N3CCC4(CC(Nc5ccc(-c6cn[nH]c6)cc5)C4)C3)ncnc2s1 (single isomer, unassigned) [Compound 328]",206
